According to ChEMBL document CHEMBL4004859, “Synthesis, antimalarial activity, heme binding and docking studies of N-substituted 4-aminoquinoline-pyrimidine molecular hybrids” (Eur J Med Chem, 2017):
Activity calls are given as the source filed them. No cut-off for these calls is given here.

Columns and labels:
Plasmodium falciparum [1] = test: Antimalarial activity against chloroquine-sensitive Plasmodium falciparum D6 infected in red blood cells after 72 hrs by Malstat reagent based LDH assay; assay type: functional, cell-based; conditions: D6, 72 h
Vero = test: Cytotoxicity against African green monkey Vero cells assessed as reduction in cell viability up to 10 uM after 48 hrs by neutral red assay; assay type: cell-based; conditions: chlorocebus sabaeus
Plasmodium falciparum [2] = test: Antimalarial activity against chloroquine-resistant Plasmodium falciparum W2 infected in red blood cells after 72 hrs by Malstat reagent based LDH assay; assay type: functional, cell-based; conditions: W2, 72 h
[3] = Selectivity index, ratio of IC50 for African green monkey Vero cells to IC50 for chloroquine-resistant Plasmodium falciparum W2 infected in red blood cells; assay type: toxicity, cell-based; conditions: read-out: Ratio IC50
[4] = Selectivity index, ratio of IC50 for African green monkey Vero cells to IC50 for chloroquine-sensitive Plasmodium falciparum D6 infected in red blood cells; assay type: toxicity, cell-based; conditions: read-out: Ratio IC50
[5] = Resistance index, ratio of IC50 for Plasmodium falciparum W2 infected in red blood cells to IC50 for Plasmodium falciparum D6 infected in red blood cells; assay type: functional
Plasmodium falciparum [6] = test: Antimalarial activity against chloroquine-resistant Plasmodium falciparum W2 infected in red blood cells up to 10 uM after 72 hrs by Malstat reagent based LDH assay; assay type: functional, cell-based
mu-oxodimeric heme [7] = test: Binding affinity to mu-oxodimeric heme (unknown origin) in aqueous NaOH solution assessed as 1:1 stoichiometry for heme-compound complex at pH 5.8 by Job's plot method
Heme [8] = test: Binding affinity to monomeric heme (unknown origin) in DMSO/water solution up to 40 uM at pH 5.6 by titration-based UV-vis spectrophotometric analysis
Heme [9] = test: Binding affinity to monomeric heme (unknown origin) assessed as mole fraction of compound required to show 1:1 stoichiometry for heme-compound complex at pH 5.6 to 7.4 by Job's plot method
mu-oxodimeric heme [10] = test: Binding affinity to mu-oxodimeric heme (unknown origin) in aqueous NaOH solution up to 15 uM at pH 5.8 by titration-based UV-vis spectrophotometric analysis

With Cc1cc(N2CCOCC2)nc(N(CCCNc2ccnc3cc(Cl)ccc23)Cc2ccco2)n1 the IC50 (Plasmodium falciparum [1]) was 53 nM, the Activity (Vero) was “Non-Toxic” and the IC50 (Plasmodium falciparum [2]) was 167 nM. The selectivity ratio [3] was > 59.9, the selectivity ratio [4] was > 189 and the “Ratio IC50” value [5] was 3.15.

For Cc1cc(N2CCCCC2)nc(N(CCCNc2ccnc3cc(Cl)ccc23)Cc2ccco2)n1, the IC50 (Plasmodium falciparum [1]) was 59 nM, the Activity (Vero) was “Non-Toxic” and the IC50 (Plasmodium falciparum [2]) was 197 nM. For the same molecule, the selectivity ratio [3] was > 50.8, the selectivity ratio [4] was > 169 and the “Ratio IC50” value [5] was 3.33.

In the case of Cc1cc(N(CCNc2ccnc3cc(Cl)ccc23)Cc2ccco2)nc(N2CCCC2)n1, the IC50 (Plasmodium falciparum [1]) is reported as 50 nM, the Activity (Vero) is reported as “Non-Toxic” and the IC50 (Plasmodium falciparum [2]) is reported as 163 nM. The selectivity ratio [3] was > 61.3, the selectivity ratio [4] was > 200 and the “Ratio IC50” value [5] was 3.26.

With CCN1CCN(c2cc(C)nc(N(CCNc3ccnc4cc(Cl)ccc34)Cc3ccco3)n2)CC1 the IC50 (Plasmodium falciparum [1]) was 42 nM, the Activity (Vero) was “Non-Toxic” and the IC50 (Plasmodium falciparum [2]) was 47 nM. The selectivity ratio [3] was > 213, the selectivity ratio [4] was > 238 and the “Ratio IC50” value [5] was 1.11.

In the case of CCc1nc(N)nc(N)c1-c1ccc(Cl)cc1 [PYRIMETHAMINE], the Activity (Plasmodium falciparum [6]) is reported as “inactive”, the Activity (Vero) is reported as “Non-Toxic” and the selectivity ratio [4] is reported as > 1110.

For C[C@@H]1CC[C@H]2[C@@H](C)C(=O)O[C@@H]3O[C@@]4(C)CC[C@@H]1[C@]32OO4 [ARTEMISININ], the IC50 (Plasmodium falciparum [1]) was 45 nM, the Activity (Vero) was “Non-Toxic” and the IC50 (Plasmodium falciparum [2]) was 23 nM. For the same molecule, the selectivity ratio [3] was 435, the selectivity ratio [4] was > 222 and the “Ratio IC50” value [5] was 0.511.

With Cc1cc(N2CCN(C)CC2)nc(N(CCCNc2ccnc3cc(Cl)ccc23)Cc2ccco2)n1 the IC50 (Plasmodium falciparum [1]) was 49 nM, the Activity (Vero) was “Non-Toxic” and the IC50 (Plasmodium falciparum [2]) was 48 nM. The selectivity ratio [3] was > 208, the selectivity ratio [4] was > 204 and the “Ratio IC50” value [5] was 0.979.

For Cc1cc(Cl)nc(N(CCCNc2ccnc3cc(Cl)ccc23)Cc2ccco2)n1, the IC50 (Plasmodium falciparum [1]) was 337 nM, the Activity (Vero) was “Non-Toxic” and the IC50 (Plasmodium falciparum [2]) was 506 nM. The selectivity ratio [3] was > 19.8, the selectivity ratio [4] was > 29.7 and the “Ratio IC50” value [5] was 1.5.

For CCN1CCN(c2nc(C)cc(N(CCNc3ccnc4cc(Cl)ccc34)Cc3ccco3)n2)CC1, the IC50 (Plasmodium falciparum [1]) was 38 nM, the Activity (Vero) was “Non-Toxic” and the Activity (mu-oxodimeric heme [7]) was “Active”. The Activity (Heme [8]) was “Active”, the Activity (mole fraction) (Heme [9]) was 0.5 and the IC50 (Plasmodium falciparum [2]) was 40 nM. For the same molecule, the selectivity ratio [3] was > 250, the selectivity ratio [4] was > 263 and the “Ratio IC50” value [5] was 1.05. For the same molecule, the Activity (mu-oxodimeric heme [10]) was “Active”.

In the case of Cc1cc(N(CCNc2ccnc3cc(Cl)ccc23)Cc2ccco2)nc(N2CCOCC2)n1, the IC50 (Plasmodium falciparum [1]) is reported as 55 nM, the Activity (Vero) is reported as “Non-Toxic” and the IC50 (Plasmodium falciparum [2]) is reported as 122 nM. For the same molecule, the selectivity ratio [3] was > 82, the selectivity ratio [4] was > 182 and the “Ratio IC50” value [5] was 2.21.

For Cc1cc(N(CCCNc2ccnc3cc(Cl)ccc23)Cc2ccco2)nc(N2CCCCC2)n1, the IC50 (Plasmodium falciparum [1]) was 43 nM, the Activity (Vero) was “Non-Toxic” and the IC50 (Plasmodium falciparum [2]) was 72 nM. The selectivity ratio [3] was > 139, the selectivity ratio [4] was > 233 and the “Ratio IC50” value [5] was 1.67.

With Cc1cc(N(CCCNc2ccnc3cc(Cl)ccc23)Cc2ccco2)nc(Cl)n1 the IC50 (Plasmodium falciparum [1]) was 108 nM, the Activity (Vero) was “Non-Toxic” and the IC50 (Plasmodium falciparum [2]) was 454 nM. For the same molecule, the selectivity ratio [3] was > 22, the selectivity ratio [4] was > 92.6 and the “Ratio IC50” value [5] was 4.2.

For Cc1cc(N(CCCNc2ccnc3cc(Cl)ccc23)Cc2ccco2)nc(N2CCCC2)n1, the IC50 (Plasmodium falciparum [1]) was 44 nM, the Activity (Vero) was “Non-Toxic” and the IC50 (Plasmodium falciparum [2]) was 76 nM. The selectivity ratio [3] was > 132, the selectivity ratio [4] was > 222 and the “Ratio IC50” value [5] was 1.72.

In the case of CCN(CC)CCCC(C)Nc1ccnc2cc(Cl)ccc12 (stereo not drawn) [CHLOROQUINE], the Activity (Vero) is reported as “Non-Toxic”.

With Cc1cc(N2CCCC2)nc(N(CCNc2ccnc3cc(Cl)ccc23)Cc2ccco2)n1 the IC50 (Plasmodium falciparum [1]) was 60 nM, the Activity (Vero) was “Non-Toxic” and the IC50 (Plasmodium falciparum [2]) was 194 nM. For the same molecule, the selectivity ratio [3] was > 51.5, the selectivity ratio [4] was > 167 and the “Ratio IC50” value [5] was 3.23.

In the case of Cc1cc(N(CCNc2ccnc3cc(Cl)ccc23)Cc2ccco2)nc(N2CCCCC2)n1, the IC50 (Plasmodium falciparum [1]) is reported as 61 nM, the Activity (Vero) is reported as “Non-Toxic” and the IC50 (Plasmodium falciparum [2]) is reported as 199 nM. The selectivity ratio [3] was > 50.2, the selectivity ratio [4] was > 164 and the “Ratio IC50” value [5] was 3.26.

For Cc1cc(N2CCN(C)CC2)nc(N(CCNc2ccnc3cc(Cl)ccc23)Cc2ccco2)n1, the IC50 (Plasmodium falciparum [1]) was 42 nM, the Activity (Vero) was “Non-Toxic” and the IC50 (Plasmodium falciparum [2]) was 42 nM. For the same molecule, the selectivity ratio [3] was > 238, the selectivity ratio [4] was > 238 and the “Ratio IC50” value [5] was 1.

With CCN1CCN(c2cc(C)nc(N(CCCNc3ccnc4cc(Cl)ccc34)Cc3ccco3)n2)CC1 the IC50 (Plasmodium falciparum [1]) was 40 nM, the Activity (Vero) was “Non-Toxic” and the IC50 (Plasmodium falciparum [2]) was 39 nM. The selectivity ratio [3] was > 256, the selectivity ratio [4] was > 250 and the “Ratio IC50” value [5] was 0.975.

With Cc1cc(N(CCNc2ccnc3cc(Cl)ccc23)Cc2ccco2)nc(Cl)n1 the IC50 (Plasmodium falciparum [1]) was 64 nM, the Activity (Vero) was “Non-Toxic” and the IC50 (Plasmodium falciparum [2]) was 75 nM. For the same molecule, the selectivity ratio [3] was > 133, the selectivity ratio [4] was > 156 and the “Ratio IC50” value [5] was 1.17.

For Cc1cc(Cl)nc(N(CCNc2ccnc3cc(Cl)ccc23)Cc2ccco2)n1, the IC50 (Plasmodium falciparum [1]) was 80 nM, the Activity (Vero) was “Non-Toxic” and the IC50 (Plasmodium falciparum [2]) was 62 nM. The selectivity ratio [3] was > 161, the selectivity ratio [4] was > 125 and the “Ratio IC50” value [5] was 0.775.

In the case of CCN1CCN(c2nc(C)cc(N(CCCNc3ccnc4cc(Cl)ccc34)Cc3ccco3)n2)CC1, the IC50 (Plasmodium falciparum [1]) is reported as 44 nM, the Activity (Vero) is reported as “Non-Toxic” and the IC50 (Plasmodium falciparum [2]) is reported as 43 nM. For the same molecule, the selectivity ratio [3] was > 233, the selectivity ratio [4] was > 222 and the “Ratio IC50” value [5] was 0.977.

For Cc1cc(N(CCNc2ccnc3cc(Cl)ccc23)Cc2ccco2)nc(N2CCN(C)CC2)n1, the IC50 (Plasmodium falciparum [1]) was 41 nM, the Activity (Vero) was “Non-Toxic” and the IC50 (Plasmodium falciparum [2]) was 41 nM. The selectivity ratio [3] was > 244, the selectivity ratio [4] was > 244 and the “Ratio IC50” value [5] was 1.

With Cc1cc(N(CCCNc2ccnc3cc(Cl)ccc23)Cc2ccco2)nc(N2CCOCC2)n1 the IC50 (Plasmodium falciparum [1]) was 46 nM, the Activity (Vero) was “Non-Toxic” and the IC50 (Plasmodium falciparum [2]) was 257 nM. For the same molecule, the selectivity ratio [3] was > 38.9, the selectivity ratio [4] was > 217 and the “Ratio IC50” value [5] was 5.58.

With Cc1cc(N2CCCCC2)nc(N(CCNc2ccnc3cc(Cl)ccc23)Cc2ccco2)n1 the IC50 (Plasmodium falciparum [1]) was 44 nM, the Activity (Vero) was “Non-Toxic” and the IC50 (Plasmodium falciparum [2]) was 204 nM. For the same molecule, the selectivity ratio [3] was > 49, the selectivity ratio [4] was > 222 and the “Ratio IC50” value [5] was 4.63.

For Cc1cc(N2CCCC2)nc(N(CCCNc2ccnc3cc(Cl)ccc23)Cc2ccco2)n1, the IC50 (Plasmodium falciparum [1]) was 51 nM, the Activity (Vero) was “Non-Toxic” and the IC50 (Plasmodium falciparum [2]) was 162 nM. For the same molecule, the selectivity ratio [3] was > 61.7, the selectivity ratio [4] was > 196 and the “Ratio IC50” value [5] was 3.17.

With Cc1cc(N(CCCNc2ccnc3cc(Cl)ccc23)Cc2ccco2)nc(N2CCN(C)CC2)n1 the IC50 (Plasmodium falciparum [1]) was 45 nM, the Activity (Vero) was “Non-Toxic” and the IC50 (Plasmodium falciparum [2]) was 47 nM. The selectivity ratio [3] was > 213, the selectivity ratio [4] was > 206 and the “Ratio IC50” value [5] was 1.04.

In the case of Cc1cc(N2CCOCC2)nc(N(CCNc2ccnc3cc(Cl)ccc23)Cc2ccco2)n1, the IC50 (Plasmodium falciparum [1]) is reported as 43 nM, the Activity (Vero) is reported as “Non-Toxic” and the IC50 (Plasmodium falciparum [2]) is reported as 63 nM. For the same molecule, the selectivity ratio [3] was > 159, the selectivity ratio [4] was > 233 and the “Ratio IC50” value [5] was 1.46.
